The supplement of paper PMC13207355

What was measured:
Settings in all cases: exposure time: 72 h
E28 [1] = patient-derived glioblastoma stem cells of classical subtype; assay: phenotypic distance (Euclidean, principal components) from DMSO controls (arbitrary units); higher = stronger morphological change
E34 [2] = patient-derived glioblastoma stem cells of proneural subtype; assay: as above
FT3469 [3] = normal neural stem cell line; assay: as above
E57 [4] = patient-derived glioblastoma stem cells of mesenchymal subtype; assay: as above
E13 [5] = patient-derived glioblastoma stem cells of classical subtype; assay: as above
E31 [6] = patient-derived glioblastoma stem cells of proneural subtype; assay: as above
E21 [7] = patient-derived glioblastoma stem cells of mesenchymal subtype; assay: as above
E28 [8] = assay: surviving fraction (nuclei count normalised to DMSO); higher = more cells surviving (less toxic)
E34 [9] = assay: as above
FT3469 [10] = assay: as above
E57 [11] = assay: as above
E13 [12] = assay: as above
E31 [13] = assay: as above
E21 [14] = assay: as above
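Wherever phenotypic distance (Euclidean, principal components) from DMSO controls is given: cell Painting imaging in 384-well plates, CellProfiler features reduced to at least 20 principal components, Euclidean distance versus same-plate DMSO vehicle wells (0.1% v/v), median over six images per well.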
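Wherever surviving fraction (nuclei count normalised to DMSO) is given: nuclei counted by high-content imaging of Hoechst-stained cells in laminin-coated 384-well plates, relative to 0.1% DMSO vehicle wells, with staurosporine as cell-death control.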

Cc1ccc2c(c1)C1(CCN(CCc3nc(-c4ccccc4)oc3C)CC1)OC(=O)N2
Settings	phenotypic distance	surviving fraction
E13 [5], 4.1 nM	2.72	–
E13 [5], 12.3 nM	2.97	–
E13 [5], 37 nM	1.42	–
E13 [5], 111.1 nM	0.52	–
E13 [5], 333.3 nM	0.547	–
E13 [5], 1000 nM	0.819	–
E13 [5], 3000 nM	0.711	–
E13 [12], 4.1 nM	–	0.988
E13 [12], 12.3 nM	–	1.09
E13 [12], 37 nM	–	1.12
E13 [12], 111.1 nM	–	1.07
E13 [12], 333.3 nM	–	1.12
E13 [12], 1000 nM	–	1.11
E13 [12], 3000 nM	–	0.943
E21 [7], 4.1 nM	1.42	–
E21 [7], 12.3 nM	0.605	–
E21 [7], 37 nM	4.58	–
E21 [7], 111.1 nM	0.716	–
E21 [7], 333.3 nM	0.433	–
E21 [7], 1000 nM	0.642	–
E21 [7], 3000 nM	1.29	–
E21 [14], 4.1 nM	–	0.932
E21 [14], 12.3 nM	–	0.961
E21 [14], 37 nM	–	0.956
E21 [14], 111.1 nM	–	1.07
E21 [14], 333.3 nM	–	0.988
E21 [14], 1000 nM	–	0.923
E21 [14], 3000 nM	–	0.891
E28 [1], 4.1 nM	0.761	–
E28 [1], 12.3 nM	1.33	–
E28 [1], 37 nM	0.46	–
E28 [1], 111.1 nM	0.636	–
E28 [1], 333.3 nM	0.695	–
E28 [1], 1000 nM	0.667	–
E28 [1], 3000 nM	0.74	–
E28 [8], 4.1 nM	–	1.07
E28 [8], 12.3 nM	–	0.977
E28 [8], 37 nM	–	1.11
E28 [8], 111.1 nM	–	0.99
E28 [8], 333.3 nM	–	1.11
E28 [8], 1000 nM	–	0.938
E28 [8], 3000 nM	–	1.1
E31 [6], 4.1 nM	1.24	–
E31 [6], 12.3 nM	0.61	–
E31 [6], 37 nM	0.972	–
E31 [6], 111.1 nM	0.485	–
E31 [6], 333.3 nM	0.605	–
E31 [6], 1000 nM	0.491	–
E31 [6], 3000 nM	0.687	–
E31 [13], 4.1 nM	–	1.04
E31 [13], 12.3 nM	–	0.99
E31 [13], 37 nM	–	1.01
E31 [13], 111.1 nM	–	0.979
E31 [13], 333.3 nM	–	1.04
E31 [13], 1000 nM	–	0.996
E31 [13], 3000 nM	–	0.955
E34 [2], 4.1 nM	0.895	–
E34 [2], 12.3 nM	2	–
E34 [2], 37 nM	0.587	–
E34 [2], 111.1 nM	0.749	–
E34 [2], 333.3 nM	0.998	–
E34 [2], 1000 nM	0.765	–
E34 [2], 3000 nM	0.942	–
E34 [9], 4.1 nM	–	0.851
E34 [9], 12.3 nM	–	1.03
E34 [9], 37 nM	–	0.875
E34 [9], 111.1 nM	–	0.878
E34 [9], 333.3 nM	–	1.17
E34 [9], 1000 nM	–	1.07
E34 [9], 3000 nM	–	1.05
E57 [4], 4.1 nM	0.955	–
E57 [4], 12.3 nM	0.495	–
E57 [4], 37 nM	0.64	–
E57 [4], 111.1 nM	0.513	–
E57 [4], 333.3 nM	0.49	–
E57 [4], 1000 nM	0.453	–
E57 [4], 3000 nM	0.766	–
E57 [11], 4.1 nM	–	1.05
E57 [11], 12.3 nM	–	1.03
E57 [11], 37 nM	–	0.923
E57 [11], 111.1 nM	–	1.01
E57 [11], 333.3 nM	–	1.04
E57 [11], 1000 nM	–	0.967
E57 [11], 3000 nM	–	1.02
FT3469 [3], 4.1 nM	1.5	–
FT3469 [3], 12.3 nM	0.887	–
FT3469 [3], 37 nM	0.645	–
FT3469 [3], 111.1 nM	1.16	–
FT3469 [3], 333.3 nM	0.543	–
FT3469 [3], 1000 nM	0.575	–
FT3469 [3], 3000 nM	0.661	–
FT3469 [10], 4.1 nM	–	0.873
FT3469 [10], 12.3 nM	–	1.15
FT3469 [10], 37 nM	–	1.04
FT3469 [10], 111.1 nM	–	0.795
FT3469 [10], 333.3 nM	–	1.1
FT3469 [10], 1000 nM	–	1.03
FT3469 [10], 3000 nM	–	0.991
